Read-outs that look alike come from different tables or passages of the source.
Experiments:
[1] = test system: 3D7; assay: Cross-resistance EC50 assay, 3D7 parent / sensitive strain; type: cell-based; conditions: Plasmodium falciparum
In short: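 P. falciparum asexual blood-stage proliferation, parent/sensitive strain of each resistant clone; 48-h assay with rings (0.5% parasitemia, 2.0% haematocrit) in RPMI-1640/5% AlbuMAX, ^3H-hypoxanthine added at 24 h, normalized to no-drug and 2 μM artesunate controls; alternatively 72-h SYBR Green assay (0.3% parasitemia, 4% haematocrit). EC50s from triplicate fits.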

[2] = test system: ATQ-R4 (cytb M133I and L144S, parent 3D7); assay: Cross-resistance EC50 assay, ATQ-R4; type: cell-based, Plasmodium falciparum; conditions: Plasmodium falciparum, 3D7; SYBR green 72 hour assay; asynchronized parasites; 96-well or 1536-well format; ATQ-R4
Text: (§1) To evaluate potential overlapping activity against known antimalarial drug targets, we performed dose-response studies with each compound against our assembled set of drug-resistant lines and their corresponding parents, in an asexual blood stage proliferation assay (Table 1). Comparisons were made to the drug-sensitive strain 3D7 when a parent was unavailable (TM90C2A, W2 and Dd2). As laboratories conducted EC50 assays with different strains and protocols, all comparisons were made between assays from the same laboratory and under the same assay conditions. Compounds displaying >5-fold EC50 shifts relative to the parent or sensitive strain were flagged as having potentially non-novel targets. Average fold shifts per strain ranged from 0.82 to 2.34, with a median of 1.23 indicating there was not common resistance to any one resistant clone. No resistance patterns were observed when classifying the compounds based on chemical structure, but this was not surprising given the diversity of compounds chosen. On the other hand, given that these confirmed compounds were derived from larger unconfirmed hit lists to which some filtration criteria may have been applied (for example, elimination of obvious dihydrofolate reductase inhibitors[32]), some[10][11][12][13] pre-existing bias may exist in the set. […]
(§2) Alternatively, a SYBR Green-based proliferation approach was used for the 72-h assay, as previously described. Briefly, a culture of either synchronized or asynchronous parasitized RBCs (0.3% parasitemia and 4% haematocrit) in screening medium (identical to supplemented medium above except no serum was added) was exposed to serial drug dilutions. Plates were incubated at 37 °C and gassed with 93% N2, 4% CO2 and 3% O2 for 72 h. Following incubation, 10 × SYBR Green I (Invitrogen; supplied in 10,000 × concentration) in lysis buffer ([…], 5 mM EDTA, 0.16% Saponin wt per vol and 1.6% Triton X vol per vol) was added to the wells and the plates were incubated overnight at room temperature before plate reading. EC50 assays were repeated three times, taking the average EC50 value from each assay set, and removing any outliers using a single iteration of Grubbs' test, eliminating values with z-scores above the critical z-value (α=0.05). The raw EC50 values for synchronized parasites assayed in a 384-well format are listed in Supplementary Data 4. The raw EC50 values for asynchronous parasites assayed in a 96 or 1536-well format are listed in Supplementary Data 5.
(§3) EC50 values for each strain were compared with those of the corresponding parent strain to determine fold-shift changes and identify resistance. To minimize the cause variance between assays, all comparisons were conducted between strains assayed under identical conditions. A one-way ANOVA followed by a Dunnet's post-test was conducted in GraphPad Prism to identify significant changes between the parent and resistant strain.

[3] = test system: NITD609-R2 (PfATP4 T418N and P990R, parent Dd2); assay: Cross-resistance EC50 assay, NITD609-R2; type: cell-based; conditions: Plasmodium falciparum, SYBR green 72 hour assay, asynchronized parasites, 96-well or 1536-well format
Text: as §1, §2, §3

[4] = SYBR green 72 hour assay, asynchronized parasites, 96-well or 1536-well format, 3D7 parent, read-out: 3D7 (PARENT) EC50 (µM) Average EC50
[5] = SYBR green 72 hour assay, synchronized parasites, 384-well format, strain 3D7 (parent), read-out: 3D7 (PARENT) Average EC50
[6] = hypoxanthine 48-hour assay, synchronized parasites, 96-well format, strain 3D7 (parent), read-out: 3D7 (PARENT) Average EC50
[7] = hypoxanthine 48-hour assay, synchronized parasites, 96-well format, strain 3D7-C9-WT (parent of PfATP4 Mut3), read-out: 3D7-C9-WT (PARENT) Average EC50
[8] = SYBR green 72 hour assay, synchronized parasites, 384-well format, 3D7 parent, read-out: 3D7 (PARENT) Average EC50

Row | Compound | EC50 [1, 4] [µM] | EC50 [1, 5] [µM] | EC50 [1, 6] [µM] | EC50 [1, 7] [µM] | EC50 [2] [µM] | EC50 [3] [µM] | EC50 [1, 8] [µM]
1 | COc1cc(C(=O)ON=C(N)Cc2cccc3ccccc23)cc(OC)c1OC [MMV666687] | 1 | 0.89 | 0.351 | 0.294 | 0.784 | 0.535 | –
2 | c1cc(-c2cnc3ccc(-c4ccc(N5CCOCC5)cc4)nn23)ccn1 [MMV668311] | 0.014 | 0.033 | 0.05 | 0.018 | 0.029 | 0.016 | –
3 | c1cncc(-c2cc(N3CCC(CN4CCOCC4)CC3)nc(-c3ccncc3)n2)c1 [MMV668399] | 0.322 | 0.089 | 0.081 | 0.072 | 0.332 | 0.652 | –
4 | COc1ccc2c3c([nH]c2c1)[C@H](CO)N(C(C)=O)CC31CCN(C(=O)Nc2ccccc2F)CC1 [MMV673482] | 0.039 | – | 0.232 | 0.234 | 0.027 | 0.007 | 0.127
5 | CN(C)CCCNCc1ccc(-c2ccc(Cl)c(Cl)c2)o1 [MMV673964] | 0.068 | – | 0.633 | 0.575 | 0.163 | 0.756 | 0.29
